PMC9948168, “Vanillin-Based Indolin-2-one Derivative Bearing a Pyridyl Moiety as a Promising Anti-Breast Cancer Agent via Anti-Estrogenic Activity” (ACS Omega, 2023)

Assays:
Assay in all cases: NCI-60 one-dose screening
Format in all cases: cell-based
NCI-H226 = conditions: Homo sapiens, NCI-H226, Non-Small Cell Lung Cancer, read-out: GI (%)
RPMI-8226 = conditions: Homo sapiens, RPMI-8226, Leukemias, read-out: GI (%)
786-0 = conditions: Homo sapiens, 786-0, Renal Cancer, read-out: GI (%)
MCF7 = conditions: Homo sapiens, MCF7, 10 μM; MCF7, Breast Cancer; read-out: GI (%)
SF-539 = conditions: Homo sapiens, SF-539, CNS Cancer, read-out: GI (%)
COLO 205 = conditions: Homo sapiens, COLO 205, Colon Cancer, read-out: GI (%)
ACHN = conditions: Homo sapiens, Renal Cancer, read-out: GI (%)
CCRF-CEM = conditions: Homo sapiens, Leukemias, read-out: GI (%)
HCT-116 = conditions: Homo sapiens, HCT-116, Colon Cancer, read-out: GI (%)
HOP-92 = conditions: Homo sapiens, HOP-92, Non-Small Cell Lung Cancer, read-out: GI (%)
HT29 = conditions: Homo sapiens, HT-29, HT29, Colon Cancer, read-out: GI (%)
OVCAR-8 = conditions: Homo sapiens, OVCAR-8, Ovarian Cancer, read-out: GI (%)
HCT-15 = conditions: Homo sapiens, HCT-15, Colon Cancer, read-out: GI (%)
NCI-H322M = conditions: Homo sapiens, Non-Small Cell Lung Cancer, read-out: GI (%)
TK-10 = conditions: Homo sapiens, TK-10, Renal Cancer, read-out: GI (%)
MDA-MB-231/ATCC = conditions: Homo sapiens, Breast Cancer, read-out: GI (%)
LOX IMVI = conditions: Homo sapiens, Melanoma, read-out: GI (%)
DU-145 = conditions: Homo sapiens, DU-145, Prostate Cancer, read-out: GI (%)
KM12 = conditions: Homo sapiens, KM12, Colon Cancer, read-out: GI (%)
OVCAR-5 = conditions: Homo sapiens, OVCAR-5, Ovarian Cancer, read-out: GI (%)
MDA-MB-468 = conditions: Homo sapiens, MDA-MB-468, Breast Cancer, read-out: GI (%)
HOP-62 = conditions: Homo sapiens, HOP-62, Non-Small Cell Lung Cancer, read-out: GI (%)
U251 = conditions: Homo sapiens, U-251, U251, CNS Cancer, read-out: GI (%)
IGROV1 = conditions: Homo sapiens, IGROV-1, IGROV1, Ovarian Cancer, read-out: GI (%)
SNB-75 = conditions: Homo sapiens, SNB-75, CNS Cancer, read-out: GI (%)
SW-620 = conditions: Homo sapiens, SW-620, Colon Cancer, read-out: GI (%)
UACC-257 = conditions: Homo sapiens, UACC-257, Melanoma, read-out: GI (%)
MDA-MB-435 = conditions: Homo sapiens, MDA-MB-435, Melanoma, read-out: GI (%)
NCI-H460 = conditions: Homo sapiens, NCI-H460, Non-Small Cell Lung Cancer, read-out: GI (%)
PC-3 = conditions: Homo sapiens, PC-3, Prostate Cancer, read-out: GI (%)
MALME-3M = conditions: Homo sapiens, Melanoma, read-out: GI (%)
A498 = conditions: Homo sapiens, A498, Renal Cancer, read-out: GI (%)
SN12C = conditions: Homo sapiens, Renal Cancer, read-out: GI (%)
SR = conditions: Homo sapiens, Leukemias, read-out: GI (%)
SK-OV-3 = conditions: Homo sapiens, SK-OV-3, Ovarian Cancer, read-out: GI (%)
K-562 = conditions: Homo sapiens, K562, K-562, Leukemias, read-out: GI (%)

SMILES	inhibition at 10 µM (NCI-H226) [%]	inhibition at 10 µM (RPMI-8226) [%]	inhibition at 10 µM (786-0) [%]	inhibition at 10 µM (MCF7) [%]	inhibition at 10 µM (SF-539) [%]	inhibition at 10 µM (COLO 205) [%]	inhibition at 10 µM (ACHN) [%]	inhibition at 10 µM (CCRF-CEM) [%]	inhibition at 10 µM (HCT-116) [%]	inhibition at 10 µM (HOP-92) [%]	inhibition at 10 µM (HT29) [%]	inhibition at 10 µM (OVCAR-8) [%]	inhibition at 10 µM (HCT-15) [%]	inhibition at 10 µM (NCI-H322M) [%]	inhibition at 10 µM (TK-10) [%]	inhibition at 10 µM (MDA-MB-231/ATCC) [%]	inhibition at 10 µM (LOX IMVI) [%]	inhibition at 10 µM (DU-145) [%]	inhibition at 10 µM (KM12) [%]	inhibition at 10 µM (OVCAR-5) [%]	also measured
COc1cc(C=C2C(=O)Nc3ccc(Cl)cc32)ccc1OCc1ccc(F)cc1 (mixture of isomers) [6h]	4.31	-0.5	-0.02	51	7.83	6.56	47.3	30.5	52.1	11.7	5.93	8.78	13.6	10.7	-29	13.1	31.7	10.5	-0.4	3.31	inhibition at 10 µM (MDA-MB-468): 12.8%; inhibition at 10 µM (HOP-62): 7.95%; inhibition at 10 µM (U251): 49.3%; inhibition at 10 µM (IGROV1): 22.7%; inhibition at 10 µM (SNB-75): 22.3%; inhibition at 10 µM (SW-620): 40.3%; inhibition at 10 µM (UACC-257): -1.98%; inhibition at 10 µM (MDA-MB-435): 8.73%; inhibition at 10 µM (NCI-H460): 29.5%; inhibition at 10 µM (PC-3): 15.8%; inhibition at 10 µM (MALME-3M): 17.7%; inhibition at 10 µM (A498): 6.57%; inhibition at 10 µM (SN12C): 11.1%; inhibition at 10 µM (SR): 58.1%; inhibition at 10 µM (SK-OV-3): -9.69%; inhibition at 10 µM (K-562): 11.4%
COc1cc(C=C2C(=O)Nc3ccccc32)ccc1OCc1ccccn1 (mixture of isomers) [6e]	6.29	15.2	1.32	50 to 65	15.1	-16	9.08	8.27	3.95	28.1	1.19	0.31	20	8.2	-51.2	18.1	3.36	1.98	3.09	-3.35	inhibition at 10 µM (MDA-MB-468): 14.2%; inhibition at 10 µM (HOP-62): 7.92%; inhibition at 10 µM (U251): 9.28%; inhibition at 10 µM (IGROV1): 21%; inhibition at 10 µM (SNB-75): -6.42%; inhibition at 10 µM (SW-620): -0.45%; inhibition at 10 µM (UACC-257): -10.9%; inhibition at 10 µM (MDA-MB-435): -7.05%; inhibition at 10 µM (NCI-H460): 0.59%; inhibition at 10 µM (PC-3): 7.05%; inhibition at 10 µM (MALME-3M): 6.1%; inhibition at 10 µM (A498): 22.2%; inhibition at 10 µM (SN12C): 2.56%; inhibition at 10 µM (SR): 21.7%; inhibition at 10 µM (SK-OV-3): -2%; inhibition at 10 µM (K-562): 19.6%
COc1cc(/C=C2/C(=O)Nc3cc(Cl)ccc32)ccc1O [5c]	10	17.9	2.08	54.4	39.8	-7.08	23.6	17	30.9	24.8	-0.03	13	34.8	15.7	-60.3	50.8	22.7	-1.46	6.51	-7.45	inhibition at 10 µM (MDA-MB-468): 28.5%; inhibition at 10 µM (HOP-62): 29.2%; inhibition at 10 µM (U251): 33.5%; inhibition at 10 µM (IGROV1): 36.6%; inhibition at 10 µM (SNB-75): 59.5%; inhibition at 10 µM (SW-620): 3.92%; inhibition at 10 µM (UACC-257): 2.41%; inhibition at 10 µM (MDA-MB-435): 17.8%; inhibition at 10 µM (NCI-H460): 8.53%; inhibition at 10 µM (PC-3): 21.6%; inhibition at 10 µM (MALME-3M): 8.69%; inhibition at 10 µM (A498): 11.1%; inhibition at 10 µM (SN12C): 15.2%; inhibition at 10 µM (SR): 43.3%; inhibition at 10 µM (SK-OV-3): 2.42%; inhibition at 10 µM (K-562): 19.6%
COc1ccc(COc2ccc(/C=C3/C(=O)Nc4ccc(Cl)cc43)cc2OC)cc1 [6i]	3.61	1.88	0.79	22.3	-1.4	-10.1	5.13	1.43	4.18	7.13	-8.29	1.18	3.59	7.01	-18.4	-0.06	5.6	-12.1	0.58	1.66	inhibition at 10 µM (MDA-MB-468): 5.64%; inhibition at 10 µM (HOP-62): 3.08%; inhibition at 10 µM (U251): -2.19%; inhibition at 10 µM (IGROV1): 5.39%; inhibition at 10 µM (SNB-75): 11%; inhibition at 10 µM (SW-620): 6.24%; inhibition at 10 µM (UACC-257): -2.09%; inhibition at 10 µM (MDA-MB-435): -5.33%; inhibition at 10 µM (NCI-H460): -2%; inhibition at 10 µM (PC-3): 11.3%; inhibition at 10 µM (MALME-3M): 2.07%; inhibition at 10 µM (A498): -6.49%; inhibition at 10 µM (SN12C): 1.92%; inhibition at 10 µM (SR): 24.1%; inhibition at 10 µM (SK-OV-3): -8.16%; inhibition at 10 µM (K-562): 6.52%
